Active and inactive are the calls of the source. No cut-off for these calls is given here.
Assays:
Cholinesterase [1] = molecular target: T1, Cholinesterase (Homo sapiens, UniProt P06276)
Description: Inhibition of human BChE using butyrylthiocholine iodide as substrate preincubated for 5 mins followed by substrate addition and measured for 1 min by Ellman's assay

[2] = molecular target: Acetylcholinesterase (AChE) (Homo sapiens, UniProt P22303); assay: in vitro; conditions: human AChE enzyme, probe acetylthiocholine iodide
Description: Inhibition of human AChE using acetylthiocholine iodide as substrate assessed as residual activity at 10 uM preincubated for 5 mins followed by substrate addition and measured for 1 min by Ellman's assay relative to control

[3] = Metal chelating activity of the compound assessed as Co2+-compound complex formation at 30 uM after 5 mins by UV-vis spectrophotometric analysis
[4] = Metal chelating activity of the compound assessed as Ni2+-compound complex formation at 30 uM after 5 mins by UV-vis spectrophotometric analysis
[5] = Metal chelating activity of the compound assessed as Al3+-compound complex formation at 30 uM after 5 mins by UV-vis spectrophotometric analysis
[6] = Metal chelating activity of the compound assessed as Cu2+-compound complex formation at 30 uM after 5 mins by UV-vis spectrophotometric analysis
[7] = Metal chelating activity of the compound assessed as Zn2+-compound complex formation at 30 uM after 5 mins by UV-vis spectrophotometric analysis
[8] = Metal chelating activity of the compound assessed as Fe2+-compound complex formation at 30 uM after 5 mins by UV-vis spectrophotometric analysis
[9] = Cytotoxicity against human SH-SY5Y cells after 48 hrs by MTS assay; type: cell-based; conditions: read-out: LD50
SH-SY5Y [10] = assay: Neuroprotection activity against amyloid beta (1 to 42)-induced toxicity in human SH-SY5Y cells at 1 uM preincubated with amyloid beta (1 to 42) for 24 hrs followed by cell addition and measured after 48 hrs by MTS assay; type: functional, cell-based
SH-SY5Y [11] = assay: Inhibition of H2O2-induced ROS generation in human SH-SY5Y cells at 5 uM preincubated for 30 mins followed by H2O2 addition and measured after 90 mins by DCFH-DA staining-based fluorescence assay; type: functional, cell-based
[12] = Permeability across basolateral to apical side in human Caco2 cells at 100 uM after 20 mins by HPLC-UV analysis; type: ADME, cell-based; conditions: Caco-2
[13] = Permeability across apical to basolateral side in human Caco2 cells at 100 uM after 20 mins by HPLC-UV analysis; type: ADME, cell-based; conditions: Caco-2
[14] = Metal chelating activity of the compound assessed as Ca2+-compound complex formation at 30 uM after 5 mins by UV-vis spectrophotometric analysis
[15] = Metal chelating activity of the compound assessed as Mn2+-compound complex formation at 30 uM after 5 mins by UV-vis spectrophotometric analysis
[16] = Metal chelating activity of the compound assessed as Mg2+-compound complex formation at 30 uM after 5 mins by UV-vis spectrophotometric analysis
[17] = Binding affinity to Cu2+ assessed as decrease in hydroxyl radical formation at 40 uM by CCA ascorbate assay
Cholinesterase [18] = molecular target: T1, Cholinesterase; assay: Competitive inhibition of human BChE using butyrylthiocholine iodide as substrate preincubated for 5 mins followed by substrate addition and measured for 1 min by Lineweaver Burk plot analysis
[19] = Efflux ratio of permeability from basolateral to apical over apical to basolateral side in human Caco2 cells at 100 uM after 20 mins by HPLC-UV analysis; type: ADME, cell-based; conditions: Caco-2
human recombinant BChE = assay: Selectivity index, ratio of LD50 for human SH-SY5Y cells to IC50 for human recombinant BChE; type: toxicity; conditions: read-out: Ratio LD50/IC50
Cholinesterase [20] = molecular target: T1, Cholinesterase; assay: Inhibition of human recombinant BChE using butyrylthiocholine as substrate preincubated for 300 secs followed by substrate addition and measured for 1 min by Ellman's assay

T1 sequence (P06276 whole entry): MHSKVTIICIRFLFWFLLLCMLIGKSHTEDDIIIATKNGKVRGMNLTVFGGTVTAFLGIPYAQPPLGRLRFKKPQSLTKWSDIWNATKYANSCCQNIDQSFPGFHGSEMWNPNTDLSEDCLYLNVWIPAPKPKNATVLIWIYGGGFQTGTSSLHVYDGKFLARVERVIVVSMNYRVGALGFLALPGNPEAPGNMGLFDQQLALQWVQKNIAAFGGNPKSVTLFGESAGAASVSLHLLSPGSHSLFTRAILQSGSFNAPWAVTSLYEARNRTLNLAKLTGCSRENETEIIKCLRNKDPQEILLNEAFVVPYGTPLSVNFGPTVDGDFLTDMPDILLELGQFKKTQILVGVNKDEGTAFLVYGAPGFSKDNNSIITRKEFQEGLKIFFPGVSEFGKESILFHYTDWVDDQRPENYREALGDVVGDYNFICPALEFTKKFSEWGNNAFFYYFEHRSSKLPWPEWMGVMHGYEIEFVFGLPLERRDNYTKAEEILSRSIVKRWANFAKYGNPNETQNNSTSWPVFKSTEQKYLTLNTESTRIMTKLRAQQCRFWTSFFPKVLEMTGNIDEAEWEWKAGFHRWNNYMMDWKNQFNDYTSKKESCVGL
Chain of Acetylcholinesterase (AChE) (P22303 whole entry): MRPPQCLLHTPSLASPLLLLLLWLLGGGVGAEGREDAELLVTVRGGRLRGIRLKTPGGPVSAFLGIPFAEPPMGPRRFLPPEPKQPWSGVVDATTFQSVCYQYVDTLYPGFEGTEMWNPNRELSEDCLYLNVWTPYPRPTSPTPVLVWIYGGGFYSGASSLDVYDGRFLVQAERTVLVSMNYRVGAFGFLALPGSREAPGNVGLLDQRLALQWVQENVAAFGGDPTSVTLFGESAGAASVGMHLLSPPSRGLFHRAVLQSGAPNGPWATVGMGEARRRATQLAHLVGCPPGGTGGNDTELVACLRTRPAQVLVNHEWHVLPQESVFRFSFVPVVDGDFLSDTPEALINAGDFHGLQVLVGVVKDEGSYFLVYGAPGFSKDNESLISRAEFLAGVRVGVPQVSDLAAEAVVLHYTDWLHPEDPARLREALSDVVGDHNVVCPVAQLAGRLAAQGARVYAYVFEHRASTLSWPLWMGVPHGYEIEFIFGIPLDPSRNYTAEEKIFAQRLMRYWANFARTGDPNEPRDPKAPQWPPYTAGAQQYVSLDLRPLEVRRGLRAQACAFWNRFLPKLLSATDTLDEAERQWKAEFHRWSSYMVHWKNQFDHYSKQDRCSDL

Structure (SMILES) | IC50 (Cholinesterase [1]) | activity at 1 min, 10 µM [2] | further results
CN(C)CCN(CC1CCCN(C2Cc3ccccc3C2)C1)C(=O)[C@@H]1N=C(c2ccccc2O)CS1 (mixture of isomers) | 229 nM | 72.9% | 
CN(C)CCN(CC1CCCN(C2Cc3ccccc3C2)C1)C(=O)c1cc2ccccc2oc1=O (racemic) | 9.5 nM | > 80% | 
CN(C)CCN(CC1CCCN(C2Cc3ccccc3C2)C1)C(=O)c1ccc(O)cc1O (racemic) | 460 nM | > 80% | 
CN(C)CCN(CC1CCCN(C2Cc3ccccc3C2)C1)C(=O)c1ccc2cccnc2c1O (racemic) |  | > 80% | Activity [3]: Active; Activity [4]: Active; Activity [5]: Active; Activity [6]: Active; Activity [7]: Active; Activity [8]: Active; CC50 at 48 h [9]: 9550 nM; Activity (SH-SY5Y [10]): inactive; inhibition (SH-SY5Y [11]): Active; Papp B→A at 20 min, 100 µM [12]: 22.8 ×10⁻⁶ cm/s; Papp A→B at 20 min, 100 µM [13]: 15.1 ×10⁻⁶ cm/s; Activity [14]: Active; Activity [15]: Active; Activity [16]: Active; Activity [17]: Active
CN(C)CCN(CC1CCCN(C2Cc3ccccc3C2)C1)C(=O)c1ccc(O)nc1 (racemic) | 21000 nM | > 80% | 
CN(C)CCN(CC1CCCN(Cc2csc(Nc3ccccn3)n2)C1)C(=O)c1ccc2ccccc2c1 (racemic) | 103 nM | > 80% | 
CN(C)CCN(CC1CCCN(C2Cc3ccccc3C2)C1)C(=O)c1ccc2c([N+](=O)[O-])ccc(O)c2n1 (racemic) | 1610 nM | > 80% | 
COCCN(CC1CCCN(C2Cc3ccccc3C2)C1)C(=O)c1ccc2cccnc2c1O (racemic) | 266 nM | > 80% | 
COc1ccc(C(=O)N(CCN(C)C)CC2CCCN(C3Cc4ccccc4C3)C2)cc1 (racemic) | 237 nM | > 80% | 
Oc1cccc2cccnc12 |  |  | Activity [17]: Active
CN(C)CCN(CC1CCCN(C2Cc3ccccc3C2)C1)C(=O)c1cc([N+](=O)[O-])c2cccnc2c1O (racemic) | 28 nM | > 80% | 
CN(C)CCN(CC1CCCN(C2Cc3ccccc3C2)C1)C(=O)c1csc(Nc2ccccn2)n1 (racemic) | 635 nM | > 80% | 
CN(C)CCN(CC1CCCN(C2Cc3ccccc3C2)C1)C(=O)c1ccc2cccc(O)c2n1 (racemic) | 11.1 nM | 75.8% | Ki (Cholinesterase [18]): 1.09 nM; Activity [3]: Active; Activity [4]: Active; Activity [5]: Active; Activity [6]: Active; Activity [7]: Active; Activity [8]: Active; CC50 at 48 h [9]: 9700 nM; Activity (SH-SY5Y [10]): Active; inhibition (SH-SY5Y [11]): Active; Papp B→A at 20 min, 100 µM [12]: 35.1 ×10⁻⁶ cm/s; Papp A→B at 20 min, 100 µM [13]: 21.5 ×10⁻⁶ cm/s; efflux ratio at 20 min, 100 µM [19]: 1.6; Activity [17]: Active; selectivity ratio (human recombinant BChE): > 700
CN(C)CCN(CC1CCCN(C2Cc3ccccc3C2)C1)C(=O)c1ccc(O)cc1 (racemic) | 1790 nM | > 80% | 
CN(C)CCN(CC1CCCN(C2Cc3ccccc3C2)C1)C(=O)/C=C/c1ccc(O)cc1 (racemic) | 71 nM | > 80% | 
CN(C)CCN(CC1CCCN(C2Cc3ccccc3C2)C1)C(=O)c1cn2cccc(O)c2n1 (racemic) | 135 nM | > 80% | 
CN(C)CCN(CC1CCCN(C2Cc3ccccc3C2)C1)C(=O)c1cccc(O)c1 (racemic) | 2490 nM | > 80% | 
CN(C)CCN(CC1CCCN(C2Cc3ccccc3C2)C1)C(=O)c1cc(O)c2cccc(O)c2n1 (racemic) | 19 nM | > 80% | 
CC(=O)NC1=NN(C(C)=O)C(C)(c2ccccc2)S1 (centres undefined) |  |  | IC50 (Cholinesterase [20]): 4.9 nM
Cc1c(C)c2c(c(C)c1O)CCC(C)(C(=O)N(CCN(C)C)CC1CCCN(C3Cc4ccccc4C3)C1)O2 (racemic) | 6920 nM | > 80% | 
CN(C)CCN(CC1CCCN(Cc2ccc3cccc(O)c3n2)C1)C(=O)c1ccc2ccccc2c1 (racemic) | 48.1 nM | > 80% | 

— ChEMBL document CHEMBL4270567, “Multi-target-directed ligands for treating Alzheimer's disease: Butyrylcholinesterase inhibitors displaying antioxidant and neuroprotective activities” (Eur J Med Chem, 2018)
